In patent US6734139B1, “N-aryl-uracile-based herbicides” (priority 1999, dated 2004):
Values joined by “and” are separate entries in the source; they are usually repeats but may differ in a detail not shown here. Equal entries are not always repeated. Where two headings read alike, the source gives them in different places. Values belong to the molecule of their own block, whether it stands above or below them.

How the values were obtained:
Format in all cases: in vivo
Ipomoea = test: Pre-emergence test (herbicidal action, Colby): Ipomoea; settings: 60 g of a.i./ha
Matricaria = test: Pre-emergence test (herbicidal action, Colby): Matricaria
Abutilon = test: Pre-emergence test (herbicidal action, Colby): Abutilon
Cyperus = test: Pre-emergence test (herbicidal action, Colby): Cyperus
Datura = test: Pre-emergence test (herbicidal action, Colby): Datura
Stellaria = test: Pre-emergence test (herbicidal action, Colby): Stellaria
Digitaria = test: Pre-emergence test (herbicidal action, Colby): Digitaria
Polygonum = test: Pre-emergence test (herbicidal action, Colby): Polygonum
Alopecurus = test: Pre-emergence test (herbicidal action, Colby): Alopecurus
weeds = test: Pre-emergence test (herbicidal action against weeds, Colby)
Excerpt: The expected action for a given combination of two herbicides can be calculated as follows (cf. COLBY, S. R.: “Calculating synergistic and antagonistic responses of herbicide combinations”, Weeds 15, Pages 20-22, 1967):
If the actual damage exceeds the calculated value, the combination has a superadditive effect, that is to say a synergistic effect.
The theoretically expected activity for a given combination of three herbicides can likewise be found in the literature mentioned above.
(§1) Solvent: 2 to 3 parts by weight of acetone or N,N-dimethyl-formamide
(§2) Emulsifier: 1 part by weight of alkylaryl polyglycol ether
(§3) To produce a suitable preparation of active compound, 1 part by weight of active compound is mixed with the stated amount of solvent, the stated amount of emulsifier is added and the concentrate is diluted with water to the desired concentration. Formulated products are dissolved in water and then diluted with water to the desired concentration.
(§4) The solutions of the other mixing components (active compounds or safeners) are prepared analogously. The separately prepared solutions of the various mixing components are then combined and, if appropriate, additional substances (formulation auxiliaries, additives, etc.) are added and, if appropriate, water is added to prepare the desired dilution.
(§5) Seeds of the test plants are sown in standard soil. After 24 hours, the soil is sprayed with the preparation of active compound such that the particular amount of active compound desired in each case is applied per unit area. The concentration of active compound in the spray liquor is chosen such that the particular amount of active compound desired in each case is applied in 500 litres of water per hectare. The containers with the test plants are kept in a greenhouse at controlled temperature and controlled illumination until evaluation.
(§6) After three weeks, the degree of damage to the plants is rated in % damage in comparison to the development of the untreated control. The figures denote
(§7) 0%=no effect/no damage (like untreated control)

Durum wheat = test: Post-emergence test in barley and wheat: durum wheat
Protocol: as §3, §4, §6, §7

Winter wheat = test: Post-emergence test in barley and wheat: winter wheat
Protocol: as §3, §4, §6, §7

Summer wheat = test: Post-emergence test in barley and wheat: summer wheat; settings: for damage, Summer wheat (5 days) / damage, Summer wheat (21 days) / damage, Summer wheat (22 days): 0.1% Renex-36
Protocol: as §3, §4, §7

Winter barley = test: Post-emergence test in barley and wheat: winter barley; settings: for damage, Winter barley (21 days): 0.1% Renex-36
Protocol: as §3, §4, §7

maize = test: Pre-emergence test in maize (crop plant compatibility); settings: Table A30
Protocol: as §1, §2, §3, §4, §5, §7

Setaria = test: Pre-emergence test (herbicidal action, Colby): Setaria; settings: 250 g of a.i./ha
Echinochloa = test: Pre-emergence test (herbicidal action, Colby): Echinochloa; settings: 250 g of a.i./ha

SMILES: CS(=O)(=O)c1ccc(C(=O)C2C(=O)CCCC2=O)c(Cl)c1 [sulcotrione, 2-(2-chloro-4-methylsulphonyl-benzoyl)-cyclohexane-1,3-dione]
- Ipomoea (Ipomoea): 80%
- Matricaria (Matricaria; 30 g of a.i./ha): 40%
- pest or weed control at 30 g/ha (Abutilon; Abutilon, read-out: Abutilon): 70%
- pest or weed control at 60 g/ha (Abutilon; Abutilon, read-out: Abutilon): 80%
- Cyperus (Cyperus; 30 g of a.i./ha): 90%
- Datura (Datura; 30 g of a.i./ha): 50%
- Stellaria (Stellaria; 60 g of a.i./ha): 80%

SMILES: CS(=O)(=O)c1cc(C(F)(F)F)ccc1C(=O)c1cnoc1C1CC1 [isoxaflutole, (5-cyclopropyl-isoxazol-4-yl)-(2-methylsulphonyl-4-trifluoromethyl-phenyl)-methanone]
- Digitaria (Digitaria; 30 g of a.i./ha): 90%
- Polygonum (Polygonum; 30 g of a.i./ha): 0%
- Alopecurus (Alopecurus; 60 g of a.i./ha): 40%
- pest or weed control at 30 g/ha (Abutilon; 30 g of a.i./ha, read-out: Abutilon): 80%
- Avena (pre-emergence test) (weeds; Table A26, 30 g of a.i./ha): 30
- Cassia (pre-emergence test) (weeds; Table A26, 30 g of a.i./ha): 70
- Digitaria (pre-emergence test) (weeds; Table A26, 30 g of a.i./ha): 80
- Echinochloa (pre-emergence test) (weeds; Table A26, 30 g of a.i./ha): 30
- Lolium (pre-emergence test) (weeds; Table A26, 30 g of a.i./ha): 30
- Matricaria (pre-emergence test) (weeds; Table A26, 30 g of a.i./ha): 20
- Setaria (pre-emergence test) (weeds; Table A26, 30 g of a.i./ha): 30
- Echinochloa (pre-emergence test) (weeds; Table A26, 60 g of a.i./ha): 40
- Lolium (pre-emergence test) (weeds; Table A26, 60 g of a.i./ha): 50
- Matricaria (pre-emergence test) (weeds; Table A26, 60 g of a.i./ha): 40
- Setaria (pre-emergence test) (weeds; Table A26, 60 g of a.i./ha): 30
- Datura (Datura; 60 g of a.i./ha): 90%

SMILES: CCCN(CCC)c1c([N+](=O)[O-])cc(C(F)(F)F)cc1[N+](=O)[O-] [trifluralin, 1-amino-2,6-dinitro-N,N-di-propyl-4-trifluoromethyl-benzene]
- Cassia (pre-emergence test) (weeds; Table A24, 250 g of a.i./ha): 80
- Lolium (pre-emergence test) (weeds; Table A24, 250 g of a.i./ha): 95
- Setaria (pre-emergence test) (weeds; Table A24, 250 g of a.i./ha): 95
- Echinochloa (pre-emergence test) (weeds; Table A24, 500 g of a.i./ha): 95
- Veronica (pre-emergence test) (weeds; Table A24, 500 g of a.i./ha): 95

- Durum wheat (5 days) (Durum wheat; 15 g of a.i./ha): 20%
- Durum wheat (21 days) (Durum wheat; 15 g of a.i./ha): 20%
- Durum wheat (5 days) (Durum wheat; 30 g of a.i./ha): 30%
- Durum wheat (21 days) (Durum wheat; 30 g of a.i./ha): 20%
- Winter wheat (5 days) (Winter wheat; 4 g of a.i./ha): 20%
- Winter wheat (20 days) (Winter wheat; 4 g of a.i./ha): 10%
- Winter wheat (22 days) (Winter wheat; 4 g of a.i./ha): 20%
- Winter wheat (5 days) (Winter wheat; 8 g of a.i./ha): 30%
- Winter wheat (20 days) (Winter wheat; 8 g of a.i./ha): 10%
- Winter wheat (22 days) (Winter wheat; 8 g of a.i./ha): 20%
- Winter wheat (5 days) (Winter wheat; 15 g of a.i./ha): 30%
- Winter wheat (20 days) (Winter wheat; 15 g of a.i./ha): 20%
- Summer wheat (5 days) (Summer wheat; 15 g of a.i./ha): 40%
- Summer wheat (21 days) (Summer wheat; 15 g of a.i./ha): 30%
- Summer wheat (5 days) (Summer wheat; 30 g of a.i./ha): 50%
- Summer wheat (21 days) (Summer wheat; 30 g of a.i./ha): 40%
- Winter barley (5 days) (Winter barley; 4 g of a.i./ha): 30%
- Winter barley (21 days) (Winter barley; 4 g of a.i./ha): 50%
- Winter barley (22 days) (Winter barley; 4 g of a.i./ha): 10%
- Winter barley (5 days) (Winter barley; 8 g of a.i./ha): 40%
- Winter barley (21 days) (Winter barley; 8 g of a.i./ha): 50%
- Winter barley (22 days) (Winter barley; 8 g of a.i./ha): 20%
- Winter barley (5 days) (Winter barley; 15 g of a.i./ha): 60% and 50%
- Winter barley (5 days) (Winter barley; 30 g of a.i./ha): 50%
- Winter barley (21 days) (Winter barley; 30 g of a.i./ha): 20%
- Maize (7 days) (maize; 60 g of a.i./ha): 30%
- Maize (7 days) (maize; 90 g of a.i./ha): 60%
- Maize (12 days) (maize; 90 g of a.i./ha): 60%
- Maize (21 days) (maize; 90 g of a.i./ha): 30%
SMILES: CCS(=O)(=O)Nc1cc(-n2c(=O)cc(C(F)(F)F)n(C)c2=O)c(F)cc1C(N)=S [I-6, 2-(ethylsulphonylamino)-5-fluoro-4-[3-methyl-2,6-dioxo-4-trifluoromethyl-3,6-dihydro-1(2H)-pyrimidinyl]-benzenecarbothioamide]
- damage, Durum wheat (5 days) (Durum wheat; 15 g of a.i./ha, 0.1% Renex-36): 20%
- damage, Durum wheat (5 days) (Durum wheat; 30 g of a.i./ha, 0.1% Renex-36): 30%
- damage, Durum wheat (22 days) (Durum wheat; 30 g of a.i./ha, 22 days, 0.1% Renex-36): 20%
- damage, Winter wheat (21 days) (Winter wheat; 15 g of a.i./ha, 21 days, 0.1% Renex-36): 10%
- damage, Summer wheat (5 days) (Summer wheat; 15 g of a.i./ha): 50%
- damage, Summer wheat (21 days) (Summer wheat; 15 g of a.i./ha): 20%
- damage, Summer wheat (22 days) (Summer wheat; 15 g of a.i./ha): 20%
- damage, Summer wheat (5 days) (Summer wheat; 30 g of a.i./ha): 60%
- damage, Summer wheat (21 days) (Summer wheat; 30 g of a.i./ha): 30%
- damage, Summer wheat (22 days) (Summer wheat; 30 g of a.i./ha): 30%
- damage, Winter barley (21 days) (Winter barley; 15 g of a.i./ha): 20%
- damage, Winter barley (21 days) (Winter barley; 30 g of a.i./ha): 30%

SMILES: CCOCN(C(=O)CCl)c1c(C)cccc1CC [acetochlor, 2-chloro-N-(ethoxymethyl)-N-(2-ethyl-6-methyl-phenyl)-acetamide]
- Digitaria (Digitaria; 125 g of a.i./ha): 80%
- Setaria (Setaria): 80%
- Polygonum (Polygonum; 125 g of a.i./ha): 30%
- Polygonum (Polygonum; 250 g of a.i./ha): 30%
- Matricaria (Matricaria; 125 g of a.i./ha): 90%
- Alopecurus (Alopecurus; 125 g of a.i./ha): 30%
- pest or weed control at 125 g/ha (Abutilon; 125 g of a.i./ha): 0%
- pest or weed control at 250 g/ha (Abutilon; 250 g of a.i./ha): 40%
- Cyperus (Cyperus; 125 g of a.i./ha): 60%
- Cyperus (Cyperus; 250 g of a.i./ha): 60%
- Echinochloa (Echinochloa): 80%
- Chenopodium (pre-emergence test) (weeds; Table A20, 125 g of a.i./ha): 30
- Datura (pre-emergence test) (weeds; Table A20, 125 g of a.i./ha): 30
- Galium (pre-emergence test) (weeds; Table A20, 125 g of a.i./ha): 0
- Ipomoea (pre-emergence test) (weeds; Table A20, 125 g of a.i./ha): 0
- Datura (pre-emergence test) (weeds; Table A20, 250 g of a.i./ha): 50
- Galium (pre-emergence test) (weeds; Table A20, 250 g of a.i./ha): 20
- Ipomoea (pre-emergence test) (weeds; Table A20, 250 g of a.i./ha): 20
- Lolium (pre-emergence test) (weeds; Table A20, 250 g of a.i./ha): 90
- Stellaria (Stellaria; 125 g of a.i./ha): 80%
